Experimental data taken from US20170290774A1, “NEUROKININ-1 RECEPTOR ANTAGONIST COMPOSITION FOR TREATMENT OF DISEASES AND CONDITIONS OF THE RESPIRATORY TRACT” (PLUS VITECH, S.L., priority 2014, published 2017).

Columns and labels:
VEGF = test: Immunohistochemistry of VEGF in respiratory tract tissue of sodium hypochlorite aerosol-treated rabbits; assay type: in vivo, New Zealand albino rabbits
Source text: It is known that the factors TGF-α, TGF-β 1, TGF-β 2, TGF-β 3, SPARC, MMP-3; MMP-7, MMP-9, MMP-11, MMP-13 and MMP-14, TGF-β, NF-kB, EGF, MMP-9, VEGF and TNF-α which are produced by lung cells (pneumocytes, fibroblasts and vascular endothelial cells) and inflammatory cells (macrophages, lymphocytes and polymorphonuclear leukocytes) are involved in the pathophysiology and development of said respiratory tract diseases. […] Herein, 27 New Zealand albino rabbits (New Zealand White Rabbit) with an initial average weight about 3 kg were used in this example. All subjects were administered an aerosol of a solution consisting of a mixture of water and sodium hypochlorite (35 g sodium hypochlorite per liter of water) at a rate of 5 mL of said solution by inhalation three times a day for 7 days (days 1 to 7 of experimentation). Subsequently, from days 3 to 7, a group of 3 rabbits (Group 1) was administered an oral dose of 10 mg/kg body weight per day, another group of 3 rabbits (Group 2) was administered an oral dose of 40 mg/kg body weight per day, a third group (Group 3) was administered an oral dose of 80 mg/kg body weight per day and a fourth group (Group 4) was administered an oral dose of 100 mg/kg body weight per day. […] This mixture was administered as an aerosol by inhalation, also from days 3 to 7, to a group of 3 rabbits (group 5) at a dose of 0.05 mg/kg body weight per day, to another group of three rabbits (Group 6) at a dose of 0.1 mg/kg body weight per day, to another group of three rabbits (Group 7) at a dose of 0.2 mg/kg body weight per day and to another group of three rabbits (Group 8) at a dose of 0.4 mg/kg body weight per day. A placebo consisting only of olive oil was administered from days 3 to 7 to a control group of 3 rabbits (placebo group). In parallel, 3 rabbits were kept under identical conditions but were not administered any treatment nor the aforementioned sodium hypochlorite solution (control group). […] On day 7 of the experiment all animals were euthanized and necropsied. […] Samples were taken at the peripheral level of the lung parenchyma, just below the pleural surface. Tissue samples were also taken from the nasal cavity, pharynx, larynx and bronchi. Immunohistochemistry studies were performed for all samples to evaluate the levels of the markers TGF-α, TGF-β 1, TGF-β 2, TGF-β 3 SPARC, MMP-3; MMP-7, MMP-9, MMP-11, MMP-14, TGF-β, TNF-α and VEGF. In said immunohistochemistry studies, a sample of each sample was dehydrated by treatment with increasing concentrations of ethanol and finally xylene. Subsequently said dried samples were embedded in paraffin, thus creating a block. Said paraffin blocks were cut on a microtome to a thickness of 5 μm, and the resulting sections (slices) were placed on slides suitable for conducting immunohistochemistry techniques. Subsequently, the sections were deparaffinised by immersion in xylene and then rehydrated through immersion in a series of solutions containing decreasing concentrations of ethanol and, finally, water. […] The samples were then allowed to cool to room temperature over 10 minutes. Endogenous peroxidase activity was blocked by treatment with 3% hydrogen peroxide over 30 min at room temperature. […] In order to verify the expression of NK1 receptors, the cell samples were incubated in the presence of anti-NK1 antibodies ([…], Sigma-Aldrich) diluted 1:1000 at 4° C. overnight. After this time they were washed in 0.05M Tris buffer at room temperature. Subsequently, Envision System-HRP (Dako) reagents were added for 30 min at room temperature. Once this time had expired, the samples were again washed with 0.05 M Tris buffer, and immunoreactivity was visualized by light microscopy with a chromogenic solution with 3,3'-diaminobenzidine (DAB+; Dako, USA). In order to differentiate the cell nuclei, these were lightly stained with haematoxylin. Samples that were not incubated with the primary antibody, but wherein this was replaced by a non-immune serum were used as negative controls. […]

[1] = Saturation concentration in different oils (soy, sunflower, rapeseed); assay type: physicochemical; details: 25° C.
Description: Each of said mixtures was continuously and gently stirred for 10 minutes at ambient temperature (25° C.) and then maintained at rest for 60 minutes. The saturation concentration was considered to be that which was immediately less than a concentration where deposition was observed, but in which no deposition of the active ingredient was observed.

C[C@@H](OC1OCCN(Cc2nc(=O)[nH][nH]2)C1c1ccc(F)cc1)c1cc(C(F)(F)F)cc(C(F)(F)F)c1 (stereo in doubt) [Aprepitant, 5-([(2R,3S)-2-((R)-1-[3,5-bis(trifluoromethyl)phenyl]ethoxy)-3-(4-fluorophenyl)morpholino]methyl)-1H-1,2,4-triazol-3(2H)-one]
Percent increase in VEGF with respect to the control group (VEGF; bronchial tissue, Group 1, oral 10 mg/kg per day): 457.34% | Percent increase in VEGF with respect to the control group (VEGF; bronchial tissue, Group 2, oral 40 mg/kg per day): 356.45% | Percent increase in VEGF with respect to the control group (VEGF; bronchial tissue, Group 3, oral 80 mg/kg per day): 256.34% | Percent increase in VEGF with respect to the control group (VEGF; bronchial tissue, Group 4, oral 100 mg/kg per day): 203.56% | % Med G5/C: percent increase in marker VEGF with respect to the control group (VEGF; bronchial tissue, Group 5): 324.53% | % Med G6/C: percent increase in marker VEGF with respect to the control group (VEGF; bronchial tissue, Group 6): 235.71% | % Med G7/C: percent increase in marker VEGF with respect to the control group (VEGF; bronchial tissue, Group 7): 153.57% | % Med G8/C: percent increase in marker VEGF with respect to the control group (VEGF; bronchial tissue, Group 8): 112.71% | Percent increase in VEGF with respect to the control group (VEGF; laryngeal tissue, Group 1, oral 10 mg/kg per day): 1,134.34% | Percent increase in VEGF with respect to the control group (VEGF; laryngeal tissue, Group 2, oral 40 mg/kg per day): 980.54% | Percent increase in VEGF with respect to the control group (VEGF; laryngeal tissue, Group 3, oral 80 mg/kg per day): 875.80% | Percent increase in VEGF with respect to the control group (VEGF; laryngeal tissue, Group 4, oral 100 mg/kg per day): 667.82% | Percent increase in VEGF with respect to the control group (VEGF; laryngeal tissue, Group 5, inhalation 0.05 mg/kg per day): 950.34% | Percent increase in VEGF with respect to the control group (VEGF; laryngeal tissue, Group 6, inhalation 0.1 mg/kg per day): 670.32% | Percent increase in VEGF with respect to the control group (VEGF; laryngeal tissue, Group 7, inhalation 0.2 mg/kg per day): 570.12% | Percent increase in VEGF with respect to the control group (VEGF; laryngeal tissue, Group 8, inhalation 0.4 mg/kg per day): 250.21% | Percent increase in VEGF with respect to the control group (VEGF; lung tissue, Group 1, oral 10 mg/kg per day): 655.77% | Percent increase in VEGF with respect to the control group (VEGF; lung tissue, Group 2, oral 40 mg/kg per day): 512.28% | Percent increase in VEGF with respect to the control group (VEGF; lung tissue, Group 3, oral 80 mg/kg per day): 458.30% | Percent increase in VEGF with respect to the control group (VEGF; lung tissue, Group 4, oral 100 mg/kg per day): 342.93% | Percent increase in VEGF with respect to the control group (VEGF; lung tissue, Group 5, inhalation 0.05 mg/kg per day): 575.62% | Percent increase in VEGF with respect to the control group (VEGF; lung tissue, Group 6, inhalation 0.1 mg/kg per day): 391.91% | Percent increase in VEGF with respect to the control group (VEGF; lung tissue, Group 7, inhalation 0.2 mg/kg per day): 200.18% | Percent increase in VEGF with respect to the control group (VEGF; lung tissue, Group 8, inhalation 0.4 mg/kg per day): 145.64% | Percent increase in VEGF with respect to the control group (VEGF; nasal cavity tissue, Group 1, oral 10 mg/kg per day): 1,293.11% | Percent increase in VEGF with respect to the control group (VEGF; nasal cavity tissue, Group 2, oral 40 mg/kg per day): 969.58% | Percent increase in VEGF with respect to the control group (VEGF; nasal cavity tissue, Group 3, oral 80 mg/kg per day): 716.62% | Percent increase in VEGF with respect to the control group (VEGF; nasal cavity tissue, Group 4, oral 100 mg/kg per day): 576.80% | Percent increase in VEGF with respect to the control group (VEGF; nasal cavity tissue, Group 5, inhalation 0.05 mg/kg per day): 1,727.98% | Percent increase in VEGF with respect to the control group (VEGF; nasal cavity tissue, Group 6, inhalation 0.1 mg/kg per day): 1,010.56% | Percent increase in VEGF with respect to the control group (VEGF; nasal cavity tissue, Group 7, inhalation 0.2 mg/kg per day): 323.15% | Percent increase in VEGF with respect to the control group (VEGF; nasal cavity tissue, Group 8, inhalation 0.4 mg/kg per day): 145.68% | Percent increase in VEGF with respect to the control group (VEGF; pharyngeal tissue, Group 1, oral 10 mg/kg per day): 1,789.12% | Percent increase in VEGF with respect to the control group (VEGF; pharyngeal tissue, Group 2, oral 40 mg/kg per day): 1,256.67% | Percent increase in VEGF with respect to the control group (VEGF; pharyngeal tissue, Group 3, oral 80 mg/kg per day): 998.56% | Percent increase in VEGF with respect to the control group (VEGF; pharyngeal tissue, Group 4, oral 100 mg/kg per day): 567.45% | Percent increase in VEGF with respect to the control group (VEGF; pharyngeal tissue, Group 5, inhalation 0.05 mg/kg per day): 1,858.37% | Percent increase in VEGF with respect to the control group (VEGF; pharyngeal tissue, Group 6, inhalation 0.1 mg/kg per day): 1,198.56% | Percent increase in VEGF with respect to the control group (VEGF; pharyngeal tissue, Group 7, inhalation 0.2 mg/kg per day): 654.32% | Percent increase in VEGF with respect to the control group (VEGF; pharyngeal tissue, Group 8, inhalation 0.4 mg/kg per day): 121.34% | Saturation concentration ([1]; Rapeseed oil): 80 nM | Saturation concentration ([1]; Soy oil): 60 nM | Saturation concentration ([1]; Sunflower oil): 70 nM
